Assays:
Assay in all cases: normalised response (% of control), CellTox Green; higher = less cell death (100 = DMSO, 0 = benzethonium chloride kill control)
Details in all cases: incubation time: 72 h
[1] = tested on: MDA-MB-231
In short: (§1)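 Breast cancer cell lines were exposed for 72 h in 384-well plates to compound at 5 concentrations, 10-fold apart, covering a 10,000-fold range fixed for each compound. Plates were read for CellTox Green fluorescence and CellTiter-Glo luminescence and normalised to 0.1 % DMSO (100) and a positive kill control (0). Each value is the normalised signal at one concentration of the series.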

[2] = tested on: MDA-MB-436
In short: as §1

[3] = tested on: CAL-85-1
In short: as §1

[4] = tested on: Hs578T
In short: as §1

[5] = tested on: CAL-120
In short: as §1

[6] = tested on: MDA-MB-468
In short: as §1

[7] = tested on: CAL-51
In short: as §1

[8] = tested on: MDA-MB-453
In short: as §1

[9] = tested on: MCF-10A
In short: as §1

| Compound | normalised response [1] | normalised response [2] | normalised response [3] | normalised response [4] | normalised response [5] | normalised response [6] | normalised response [7] | normalised response [8] | normalised response [9] |
| --- | --- | --- | --- | --- | --- | --- | --- | --- | --- |
| C[C@@H]1C[C@H]2[C@@H]3CCC4=CC(=O)C=C[C@]4(C)[C@@]3(F)[C@@H](O)C[C@]2(C)[C@@]1(O)C(=O)CO [Dexamethasone] (1000 nM) | 141% | 81.5% | 98.8% | 77.8% | 98.4% | 129% | 110% | 94.8% | 78.1% |
| C[C@@H]1C[C@H]2[C@@H]3CCC4=CC(=O)C=C[C@]4(C)[C@@]3(F)[C@@H](O)C[C@]2(C)[C@@]1(O)C(=O)CO [Dexamethasone] (10000 nM) | 139% | 97.4% | 130% | 87.4% | 102% | 135% | 103% | 100% | 81.8% |
| COc1cc2c(N3CCN(C(=O)Nc4ccc(OC(C)C)cc4)CC3)ncnc2cc1OCCCN1CCCCC1 [Tandutinib] (100 nM) | 105% | 94.2% | 110% | 91.6% | 97.3% | 134% | 96.4% | 106% | 108% |
| CCN(CC)CCOc1ccc(C(=C(Cl)c2ccccc2)c2ccccc2)cc1 [Clomifene] (10000 nM) | -87.9% | 89.1% | 25.3% | -60.1% |  | 93.8% | 109% | 18.9% | 60.3% |
| CCCCCOC(=O)Nc1nc(=O)n([C@@H]2O[C@H](C)[C@@H](O)[C@H]2O)cc1F [Capecitabine] (1000 nM) |  | 100% | 109% | 71.7% | 102% |  | 113% | 103% | 64.8% |
| O=C(O)CC[C@H]1CC[C@@](c2cc(F)ccc2F)(S(=O)(=O)c2ccc(Cl)cc2)CC1 [MK-0752] (100 nM) | 122% | 110% | 97% | 97.3% | 101% | 165% | 116% | 111% | 114% |
| CC[C@@H]1C(=O)N(C)c2cnc(Nc3ccc(C(=O)N[C@H]4CC[C@H](N5CCN(CC6CC6)CC5)CC4)cc3OC)nc2N1C(C)C [Volasertib] (1000 nM) | 95% | 92.7% | 88.7% | -77.7% | 63.5% | 118% | 22.4% | 91.3% | 56.1% |
| NC(=O)c1cccc2cn(-c3ccc([C@@H]4CCCNC4)cc3)nc12 [MK-4827] (1000 nM) | 120% | 86.7% | 95.6% | 113% | 98.5% | 110% | 82.8% | 106% | 111% |
| Cn1nnc2c(C(N)=O)ncn2c1=O [Temozolomide] (1000 nM) | 109% | 80.5% | 108% | 94.3% | 103% | 106% | 87.6% | 105% | 89.5% |
| Cc1c(N)nc([C@H](CC(N)=O)NC[C@H](N)C(N)=O)nc1C(=O)N[C@H](C(=O)N[C@H](C)[C@@H](O)[C@H](C)C(=O)N[C@H](C(=O)NCCc1nc(-c2nc(C(=O)NCCC[S+](C)C)cs2)cs1)[C@@H](C)O)[C@@H](OC1OC(CO)C(O)C(O)C1OC1OC(CO)C(O)C(OC(N)=O)C1O)c1cnc[nH]1 (some centres undefined) [Bleomycin] (10000 nM) | 78% | 68% | 81.7% | 24.7% | 99.4% | 201% | 43.9% | 90.6% | 112% |
| NC(=O)NO [Hydroxyurea] (10000 nM) | 113% | 84.6% | 116% |  | 95.1% | 81.7% | 69.1% | 106% | 99.2% |
| CCCCCOC(=O)Nc1nc(=O)n([C@@H]2O[C@H](C)[C@@H](O)[C@H]2O)cc1F [Capecitabine] (10000 nM) | 110% | 103% | 87.2% | 56.1% | 90.2% | 100% | 99.4% | 104% | 74.1% |
| NC(=O)c1cccc2cn(-c3ccc([C@@H]4CCCNC4)cc3)nc12 [MK-4827] (10000 nM) | 139% | 105% | 70.3% | 118% | 97.3% | 116% | 63.6% | 105% | 94.8% |
| C[C@]12C=CC(=O)C=C1CC[C@@H]1[C@@H]2C(=O)C[C@@]2(C)[C@H]1CC[C@]2(O)C(=O)CO [Prednisone] (10000 nM) | 114% | 107% | 91.9% |  | -48.9% | 99.5% | 109% | 100% | 104% |
| Cc1cc2c(F)c(Oc3ncnn4cc(OC[C@@H](C)O)c(C)c34)ccc2[nH]1 [Brivanib] (1000 nM) | 102% | 68.3% | 67.4% | 98.4% | 100% | 99.9% | 101% | 92.5% | 105% |
| CO[C@H](C(=O)[C@@H](O)[C@@H](C)O)[C@@H]1Cc2cc3cc(O[C@H]4C[C@@H](O[C@@H]5C[C@@H](O)[C@H](O)[C@@H](C)O5)[C@H](O)[C@@H](C)O4)c(C)c(O)c3c(O)c2C(=O)[C@H]1O[C@H]1C[C@@H](O[C@@H]2C[C@@H](O)[C@@H](O[C@@H]3C[C@](C)(O)[C@H](O)[C@@H](C)O3)[C@@H](C)O2)[C@H](O)[C@@H](C)O1 [Plicamycin] (1000 nM) | 106% |  | 99.3% | 106% | 103% |  | 94.9% | 104% | 86.6% |
| COc1cc2c(Oc3ccc(NC(=O)C4(C(=O)Nc5ccc(F)cc5)CC4)cc3F)ccnc2cc1OCCCN1CCOCC1 [Foretinib] (100 nM) | 65.1% | 102% | 100% | 83.7% | 101% | 97.5% | 94.2% | 107% | 111% |
| O=C(O)CC[C@H]1CC[C@@](c2cc(F)ccc2F)(S(=O)(=O)c2ccc(Cl)cc2)CC1 [MK-0752] (1000 nM) | 111% | 96.9% | 70.6% | 91.9% | 102% | 106% | 118% |  | 114% |

From the supplement of paper PMC4862054
